Measurements from patent publication EP1487434B1, “BOTANICAL EXTRACT COMPOSITIONS WITH ANTI-CANCER ACTIVITY COMPRISING ISOLIQUIRITIGENIN” (The Medical Research and Education Trust, priority 2002, dated 2003).
In brackets after ≈: the same amount, converted by molar mass.

What was measured:
Assay type in all cases: cell-based
LNCaP cells = test: Cell cycle measurement by DNA content flow cytometry, LNCaP; settings: two concentrations, 24-48 hours exposure
Procedure: (§1) The cells were washed with phosphate buffered saline (PBS) and fixed in ice-cold 70% ethanol. Aliquots of fixed cells were rehydrated in PBS and stained with 1.0 microgram/milliliter DAPI (4,6-diamidino-2-phenylindole from Eastman Kodak, Rochester, NY), and dissolved in 10 millimolar piperazine-N,N-bis-2-ethane-sulfonic acid buffer (Calbiochem, La Jolla, CA) containing 100 millimolar NaCl, 2mM MgCl2 and 0.1% Triton X-100 (Sigma) at pH 6.8 as previously described by Halicka et al. (H. D. Halicka, B. Ardelt, G. Juan, A. Mittelman, S. Chen, F. Traganos and Z. Darzynkiewicz, "Apoptosis and Cell Cycle Effects Induced by Extracts of the Chinese Herbal Preparation of PC SPES", International J. of Oncology (1997), 11: 437-448).
(§2) The cellular DNA content was measured with an ELITE ESP flow cytometer (Coulter Inc., F1.) using UV laser illumination. The multicycle program was used to deconvolute the DNA frequency histograms to estimate the frequency of cells in different phases of the cell cycle.

DU-145 = test: Cell cycle measurement by DNA content flow cytometry, DU-145; settings: protocol of Example 3
Procedure: as §1, §2
A prolongation in the G2M phase leads to the suppression of DU-145 cell proliferation.

hERα = molecular target: T1, hERα (Homo sapiens, UniProt P03372); test: ERα-Luc reporter gene activation in transfected HEK 293 cells; settings: 0 to 9 µg/ml, 20 hours
T1 construct: expressed in transfected cells; host or cells: HEK 293 cells (ATCC CRL-1573)
T1 sequence (P03372 whole entry): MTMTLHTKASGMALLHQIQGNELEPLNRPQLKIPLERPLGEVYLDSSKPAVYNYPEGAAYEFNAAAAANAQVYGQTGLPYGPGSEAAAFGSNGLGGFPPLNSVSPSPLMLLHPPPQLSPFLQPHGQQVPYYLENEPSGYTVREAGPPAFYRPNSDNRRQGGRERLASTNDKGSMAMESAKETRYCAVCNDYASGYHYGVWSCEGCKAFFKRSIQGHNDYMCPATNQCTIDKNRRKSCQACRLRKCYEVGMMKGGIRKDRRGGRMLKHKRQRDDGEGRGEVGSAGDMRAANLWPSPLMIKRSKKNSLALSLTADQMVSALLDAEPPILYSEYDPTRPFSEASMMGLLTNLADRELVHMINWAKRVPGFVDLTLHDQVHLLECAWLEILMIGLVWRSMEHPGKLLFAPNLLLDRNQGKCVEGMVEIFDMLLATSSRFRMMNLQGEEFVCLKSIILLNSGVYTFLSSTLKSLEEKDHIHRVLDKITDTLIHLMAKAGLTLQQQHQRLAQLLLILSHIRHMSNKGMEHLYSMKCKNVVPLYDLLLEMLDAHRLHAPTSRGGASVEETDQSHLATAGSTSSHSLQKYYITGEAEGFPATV
Source text: (§3) HEK 293 cells (ATCC CRL-1573) were transfected with an expression vector for hERα and hERβ respectively, and an ERE-LUC reporter gene (plus a TK-LUC reporter for normalization) following the protocol of Yoon et al ("Differential activation of wild-type and variant forms of estrogen receptor α by synthetic and natural estrogenic compounds using a promoter containing three estrogen-responsive elements", J. Steroid Biochem. & Molecular Biology (2000), 28: pages 25-32).

hERβ = molecular target: T2, hERβ (Homo sapiens, UniProt Q92731); test: ERβ-Luc reporter gene activation in transfected HEK 293 cells; settings: for capability in activating ERβ-Luc reporter gene than the ERα-Luc reporter gene: ERβ-Luc versus ERα-Luc, 1200 min; for ERβ-Luc reporter gene activation: HEK 293 cells, 0 to 9 µg/ml, 20 hours
T2 construct: expressed in transfected cells; host or cells: HEK 293 cells (ATCC CRL-1573)
T2 sequence (Q92731 whole entry): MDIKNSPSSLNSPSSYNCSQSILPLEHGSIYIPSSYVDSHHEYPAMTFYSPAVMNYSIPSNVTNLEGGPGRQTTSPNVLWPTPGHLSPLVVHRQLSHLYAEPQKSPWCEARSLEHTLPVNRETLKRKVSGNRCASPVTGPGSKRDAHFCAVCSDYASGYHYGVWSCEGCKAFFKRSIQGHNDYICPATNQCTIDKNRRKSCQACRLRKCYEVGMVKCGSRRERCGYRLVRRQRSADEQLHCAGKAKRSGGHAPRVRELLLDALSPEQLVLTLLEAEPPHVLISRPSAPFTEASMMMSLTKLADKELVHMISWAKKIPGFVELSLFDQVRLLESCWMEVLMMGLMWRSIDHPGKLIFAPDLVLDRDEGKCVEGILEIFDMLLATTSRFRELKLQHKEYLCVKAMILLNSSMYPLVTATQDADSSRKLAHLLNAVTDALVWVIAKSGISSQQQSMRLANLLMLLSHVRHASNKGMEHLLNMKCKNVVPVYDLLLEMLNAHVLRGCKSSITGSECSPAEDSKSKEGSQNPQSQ
Source text: as §3

[1] = test system: LNCaP (androgen-dependent) prostate cancer cells; test: MTT cell viability assay, LNCaP; settings: Homo sapiens, 72 h, read-out: ED50 values from MTT Assay, LNCaP
Source text: (§4) Cancer cell lines: LNCaP, DU-145, and MCF-7 cells were purchased from the American Type Culture Collection. PTX 10, a taxol-resistant ovarian cancer cell line, was obtained from the Brander Cancer Research Laboratory, New York Medical College. Cells were maintained in RPMI 1640 culture media supplemented with 10% heat-inactivated FBS, 5 millimolar glutamine, 50 units/milliliter of penicillin G, and 50 […] of streptomycin. The cells were routinely seeded at 1X 10^5 cells/milliliter in T-75 flasks, allowed to attach overnight, then treated with the herbal extract. At different times, cells were harvested by trypsinization.
(§5) The MTT assay (MTT = 3-(4,5-dimethylthiazol-2-yl)-2,5-diphenyl tetrazolium bromide) was used to count viable cells. The assay reagents were purchased from Boehringer Mannheim (Roche Diagnosis Corp, Indianapolis, Indiana). […] The protocol for the cell , viability assay was provided by the manufacturer and modified in our laboratory as described below.
(§6) Prostate or breast (reference) cancer cells were seeded in 96 well microtiter plates at a concentration of 3x10^3 cells per well (MCF-7; breast cancer cells) or 6x10^3 cells per well (LNCaP or DU145; prostate cancer cells), in a volume of 100 microliters of cell culture medium. After 24 hours, 20 microliter aliquots of the compounds at various concentrations were added to the attached cells. […]

[2] = test system: DU-145 (androgen-independent) prostate cancer cells; test: MTT cell viability assay, DU-145; settings: Homo sapiens, DU-145, 72 h, read-out: ED50 values from MTT Assay, DU145
Source text: as §4, §5, §6

[3] = test system: MCF-7 breast cancer cells; test: MTT cell viability assay, MCF-7; settings: Homo sapiens, MCF7; concentration giving 50% inhibition of cancer cell growth, 72 hours, linear interpolation; read-out: ED50 values from MTT Assay, MCF7
Source text: as §4, §5, §6

[4] = test system: PTX 10, a taxol resistant ovarian cancer cell line; test: MTT cell viability assay, PTX 10; settings: PTX10, 72 h, read-out: ED50, PTX 10 (taxol resistant Ovarian cancer cell)

Compound	effect on G1, S, and G2M phases of the LNCaP cell cycle (LNCaP cells)	effect on DU-145 cell cycle (DU-145)	ERα-Luc reporter gene activation (hERα)	capability in activating ERβ-Luc reporter gene than the ERα-Luc reporter gene (hERβ)	ERβ-Luc reporter gene activation (hERβ)	IC50 [1]	IC50 [2]	IC50 [3]	IC50 [4]
COc1c(O)cc(O)c2c(=O)cc(-c3ccccc3)oc12 [Wogonin, 5,7-dihydroxy-8-methoxy-flavone]	G1 phase arrest	prolonged the G2M phase	dose-responsive behavior	at least 10 times	dose-responsive behavior	–	–	–	–
O=C(/C=C/c1ccc(O)cc1)c1ccc(O)cc1O [isoliquiritigenin, 2',4,4'-trihydroxychalcone]	G2M phase arrest	–	dose-responsive behavior	at least 10 times	dose-responsive behavior	3.51 µg/mL (≈ 13.7 µM)	7.6 µg/mL (≈ 29.7 µM)	3.25 µg/mL (≈ 12.7 µM)	3.32 µg/mL (≈ 13 µM)
